In ChEMBL document CHEMBL4732190, “Identification of Potent and Long-Acting Single-Chain Peptide Mimetics of Human Relaxin-2 for Cardiovascular Diseases” (J Med Chem, 2021):
*1 amine or outer side, *2 acyl side, *3 side chain or, on linkers, in order; H or OH if unused. Where a SMILES comes first, the peptide text is derived from it. [ ]: non-standard residue; d: D form. ξ: configuration not given here. β2hAla(2S) = C[C@@H](CN[*:1])C(=O)[*:2]; ξβ2hAla = CC(CN[*:1])C(=O)[*:2]

Legend:
[1] = target: T1, Relaxin receptor 1 (Homo sapiens) (UniProt Q9HBX9); test: Agonist activity at RXFP1 endogenously expressed in human OVCAR-5 cells assessed as increase in IBMX-induced cAMP accumulation pretreated with IBMX for 40 mins followed by compound addition and measured after 30 mins by HTRF assay relative to relaxin; format: functional, cell-based; conditions: filed as agonist
T1 sequence (whole entry): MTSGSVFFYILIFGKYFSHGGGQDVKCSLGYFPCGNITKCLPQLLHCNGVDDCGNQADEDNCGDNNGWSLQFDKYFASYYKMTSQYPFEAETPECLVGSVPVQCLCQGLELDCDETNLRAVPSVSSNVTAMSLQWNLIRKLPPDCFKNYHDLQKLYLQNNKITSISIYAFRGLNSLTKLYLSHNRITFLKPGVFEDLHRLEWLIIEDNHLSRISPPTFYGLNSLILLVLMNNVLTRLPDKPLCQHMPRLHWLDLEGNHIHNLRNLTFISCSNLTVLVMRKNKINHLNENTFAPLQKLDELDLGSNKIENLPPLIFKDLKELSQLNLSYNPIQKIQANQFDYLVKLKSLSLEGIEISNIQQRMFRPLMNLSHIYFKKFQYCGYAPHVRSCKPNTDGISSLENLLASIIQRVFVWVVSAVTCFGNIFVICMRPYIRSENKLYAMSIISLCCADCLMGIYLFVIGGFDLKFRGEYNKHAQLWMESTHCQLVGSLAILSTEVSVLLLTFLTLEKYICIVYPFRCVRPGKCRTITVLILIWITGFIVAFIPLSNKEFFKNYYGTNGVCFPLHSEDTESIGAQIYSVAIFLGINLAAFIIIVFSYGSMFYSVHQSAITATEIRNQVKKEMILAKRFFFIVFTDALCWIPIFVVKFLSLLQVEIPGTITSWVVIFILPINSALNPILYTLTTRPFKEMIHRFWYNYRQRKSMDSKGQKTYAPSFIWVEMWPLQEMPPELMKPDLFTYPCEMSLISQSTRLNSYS

Relaxin receptor 1 = target: T2, Relaxin receptor 1 (Homo sapiens, UniProt Q9HBX9); test: Agonist activity at RXFP1 endogenously expressed in human OVCAR-5 cells assessed as increase in IBMX-induced cAMP accumulation pretreated with IBMX for 40 mins followed by compound addition and measured after 30 mins by HTRF assay; format: functional, cell-based
T2 sequence (Q9HBX9 whole entry): T1 sequence (whole entry)

Row | Compound | Emax [1] [%] | EC50 (Relaxin receptor 1) [nM]
1 | CC[C@H](C)[C@H](NC(=O)[C@H](CCC(N)=O)NC(=O)[C@H](C)NC(=O)[C@H](CCCNC(=N)N)NC(=O)[C@@H](NC(=O)[C@H](CC(C)C)NC(=O)[C@H](CCC(=O)O)NC(=O)[C@H](CCCNC(=N)N)NC(=O)CNC(=O)[C@H](CO)NC(=O)[C@H](CC(C)C)NC(=O)[C@H](CCCCN)NC(=O)[C@@H](NC(=O)[C@@H](NC(=O)[C@H](CCC(=O)O)NC(=O)[C@H](CCC(=O)O)NC(C)=O)C(C)C)[C@@H](C)CC)C(C)C)C(=O)N[C@@H](C)C(=O)NC[C@H](C)C(=O)N[C@@H](CO)C(=O)NCC(=O)N[C@@H](CCSC)C(=O)N[C@@H](CO)C(=O)N[C@H](C(=O)N[C@@H](Cc1c[nH]c2ccccc12)C(=O)N[C@@H](CO)C(=O)N[C@@H](CCCCN)C(=O)N[C@@H](CCCNC(=N)N)C(=O)N[C@@H](CCCCN)C(=O)N[C@@H](CCCCN)C(=O)O)[C@@H](C)O (HELM PEPTIDE1{[ac].E.E.V.I.K.L.S.G.R.E.L.V.R.A.Q.I.A.[C[C@@H](CN[*:1])C(=O)[*:2]].S.G.M.S.T.W.S.K.R.K.K}$$$$V2.0) | 95 | 32
2 | CC[C@H](C)[C@H](NC(=O)[C@H](CCC(N)=O)NC(=O)[C@H](C)NC(=O)[C@H](CCCNC(=N)N)NC(=O)[C@@H](NC(=O)[C@H](CCCCN)NC(=O)[C@H](CCC(=O)O)NC(=O)[C@H](CCCNC(=N)N)NC(=O)CNC(=O)[C@H](CCC(=O)O)NC(=O)[C@H](CC(C)C)NC(=O)[C@H](CCCCN)NC(=O)[C@@H](NC(=O)[C@@H](NC(=O)[C@H](CCC(=O)O)NC(=O)[C@H](CCC(=O)O)NC(C)=O)C(C)C)[C@@H](C)CC)C(C)C)C(=O)NCC(C)C(=O)NCC(C)C(=O)N[C@@H](CCC(=O)O)C(=O)NCC(=O)N[C@@H](CCSC)C(=O)N[C@@H](CO)C(=O)N[C@@H](CCCCN)C(=O)N[C@@H](Cc1c[nH]c2ccccc12)C(=O)N[C@@H](CO)C(=O)NC[C@H](C)C(=O)N[C@@H](CCCNC(=N)N)C(=O)N[C@@H](CCCCN)C(=O)N[C@@H](CCCCN)C(=O)O (stereo partly drawn) (Ac-EEVIKLEGREKVRAQI[ξβ2hAla][ξβ2hAla]EGMSKWS[β2hAla(2S)]RKK-OH) | 95 | 17
3 | CC[C@H](C)[C@H](NC(=O)[C@H](CCC(N)=O)NC(=O)[C@H](C)NC(=O)[C@H](CCCNC(=N)N)NC(=O)[C@@H](NC(=O)[C@@H](NC(=O)[C@H](CCC(=O)O)NC(=O)[C@H](CCCNC(=N)N)NC(=O)CNC(=O)[C@H](CCC(=O)O)NC(=O)[C@H](CC(C)C)NC(=O)[C@H](CCCCN)NC(=O)[C@@H](NC(=O)[C@@H](NC(C)=O)C(C)C)[C@@H](C)CC)[C@@H](C)CC)C(C)C)C(=O)NC[C@H](C)C(=O)N[C@H](C(=O)N[C@@H](CO)C(=O)NCC(=O)N[C@@H](CCSC)C(=O)N[C@@H](CO)C(=O)N[C@H](C(=O)N[C@@H](Cc1c[nH]c2ccccc12)C(=O)N[C@@H](CO)C(=O)N[C@@H](CCCCN)C(=O)N[C@@H](CCCNC(=N)N)C(=O)N[C@@H](CCCCN)C(=O)N[C@@H](CCCCN)C(N)=O)[C@@H](C)O)[C@@H](C)CC (HELM PEPTIDE1{[ac].V.I.K.L.E.G.R.E.I.V.R.A.Q.I.[C[C@@H](CN[*:1])C(=O)[*:2]].I.S.G.M.S.T.W.S.K.R.K.K.[am]}$$$$V2.0) | 102 | 146
4 | Ac-VIKLSGRELVRAQIAISGMSTWSKRSL-NH2 | 70 | 

Continued, values first:

Row | Emax [1] [%] | EC50 (Relaxin receptor 1) [nM] | Compound
5 | 89 | 522 | Ac-VIKLSGRELVRAQIAISGMSTWSKRKK-NH2
6 | 94 | 143 | CC[C@H](C)[C@H](NC(=O)[C@H](CCC(N)=O)NC(=O)[C@H](C)NC(=O)[C@H](CCCNC(=N)N)NC(=O)[C@@H](NC(=O)[C@H](CC(C)C)NC(=O)[C@H](CCC(=O)O)NC(=O)[C@H](CCCNC(=N)N)NC(=O)CNC(=O)[C@H](CO)NC(=O)[C@H](CC(C)C)NC(=O)[C@H](CCCCN)NC(=O)[C@@H](NC(=O)[C@@H](NC(=O)[C@H](CCC(=O)O)NC(=O)[C@H](CCC(=O)O)NC(C)=O)C(C)C)[C@@H](C)CC)C(C)C)C(=O)NC[C@H](C)C(=O)N[C@H](C(=O)N[C@@H](CO)C(=O)NCC(=O)N[C@@H](CCSC)C(=O)N[C@@H](CO)C(=O)N[C@H](C(=O)N[C@@H](Cc1c[nH]c2ccccc12)C(=O)N[C@@H](CO)C(=O)N[C@@H](CCCCN)C(=O)N[C@@H](CCCNC(=N)N)C(=O)N[C@@H](CCCCN)C(=O)N[C@@H](CCCCN)C(N)=O)[C@@H](C)O)[C@@H](C)CC (HELM PEPTIDE1{[ac].E.E.V.I.K.L.S.G.R.E.L.V.R.A.Q.I.[C[C@@H](CN[*:1])C(=O)[*:2]].I.S.G.M.S.T.W.S.K.R.K.K.[am]}$$$$V2.0)
7 | 102 | 393 | CC[C@H](C)[C@H](NC(=O)[C@H](CCC(N)=O)NC(=O)[C@H](C)NC(=O)[C@H](CCCNC(=N)N)NC(=O)[C@@H](NC(=O)[C@H](CC(C)C)NC(=O)[C@H](CCC(=O)O)NC(=O)[C@H](CCCNC(=N)N)NC(=O)CNC(=O)[C@H](CO)NC(=O)[C@H](CC(C)C)NC(=O)[C@H](CCCCN)NC(=O)[C@@H](NC(=O)[C@@H](NC(C)=O)C(C)C)[C@@H](C)CC)C(C)C)C(=O)N[C@@H](C)C(=O)NC[C@H](C)C(=O)N[C@@H](CO)C(=O)NCC(=O)N[C@@H](CCSC)C(=O)N[C@@H](CO)C(=O)N[C@H](C(=O)N[C@@H](Cc1c[nH]c2ccccc12)C(=O)N[C@@H](CO)C(=O)N[C@@H](CCCCN)C(=O)N[C@@H](CCCNC(=N)N)C(=O)N[C@@H](CCCCN)C(=O)N[C@@H](CCCCN)C(N)=O)[C@@H](C)O (HELM PEPTIDE1{[ac].V.I.K.L.S.G.R.E.L.V.R.A.Q.I.A.[C[C@@H](CN[*:1])C(=O)[*:2]].S.G.M.S.T.W.S.K.R.K.K.[am]}$$$$V2.0)
8 | 94 | 37 | CC[C@H](C)[C@H](NC(=O)[C@H](CCC(N)=O)NC(=O)[C@H](C)NC(=O)[C@H](CCCNC(=N)N)NC(=O)[C@@H](NC(=O)[C@H](CC(C)C)NC(=O)[C@H](CCC(=O)O)NC(=O)[C@H](CCCNC(=N)N)NC(=O)CNC(=O)[C@H](CO)NC(=O)[C@H](CC(C)C)NC(=O)[C@H](CCCCN)NC(=O)[C@@H](NC(=O)[C@@H](NC(=O)[C@H](CCC(=O)O)NC(=O)[C@H](CCC(=O)O)NC(C)=O)C(C)C)[C@@H](C)CC)C(C)C)C(=O)NC[C@H](C)C(=O)NC[C@H](C)C(=O)N[C@@H](CO)C(=O)NCC(=O)N[C@@H](CCSC)C(=O)N[C@@H](CO)C(=O)N[C@H](C(=O)N[C@@H](Cc1c[nH]c2ccccc12)C(=O)N[C@@H](CO)C(=O)N[C@@H](CCCCN)C(=O)N[C@@H](CCCNC(=N)N)C(=O)N[C@@H](CCCCN)C(=O)N[C@@H](CCCCN)C(N)=O)[C@@H](C)O (HELM PEPTIDE1{[ac].E.E.V.I.K.L.S.G.R.E.L.V.R.A.Q.I.[C[C@@H](CN[*:1])C(=O)[*:2]].[C[C@@H](CN[*:1])C(=O)[*:2]].S.G.M.S.T.W.S.K.R.K.K.[am]}$$$$V2.0)
9 | 91 | 43 | CC[C@H](C)[C@H](NC(=O)C(C)CNC(=O)[C@H](NC(=O)[C@H](CCC(N)=O)NC(=O)[C@H](C)NC(=O)[C@H](CCCNC(=N)N)NC(=O)[C@@H](NC(=O)[C@H](CCCCN)NC(=O)[C@H](CCC(=O)O)NC(=O)[C@H](CCCNC(=N)N)NC(=O)CNC(=O)[C@H](CCC(=O)O)NC(=O)[C@H](CC(C)C)NC(C)=O)C(C)C)[C@@H](C)CC)C(=O)N[C@@H](CCC(=O)O)C(=O)NCC(=O)N[C@@H](CCSC)C(=O)N[C@@H](CO)C(=O)N[C@@H](CCCCN)C(=O)N[C@@H](Cc1c[nH]c2ccccc12)C(=O)N[C@@H](CO)C(=O)N[C@@H](CCCCN)C(=O)N[C@@H](CCCNC(=N)N)C(=O)N[C@@H](CCCCN)C(=O)N[C@@H](CCCCN)C(N)=O (some centres not stated)
